Experimental data as given in article PMC11067034 (Proceedings of the National Academy of Sciences of the …, 2024).

Molecular target: T1, human CTF18-RFC (ATPγS sites in CTF18/A, RFC2/B, RFC5/C, RFC4/D) (Homo sapiens, UniProt P35249+P35250+P40937+Q8WVB6)
T1 construct: gene CHTF18; heptameric CTF18-RFC2-5-DCC1-CTF8 from baculovirus/insect cells, intact complex; DCC1 and CTF8 invisible in maps; mixed with human PCNA (from E. coli BL21) and two-tailed DNA; with Replication factor C subunit 3; Sister chromatid cohesion protein DCC1; Chromosome transmission fidelity protein 8 homolog; Proliferating cell nuclear antigen
Experiment: cryo-EM structure
Format: binding
Conditions: Mg2+-coordinated; ATPase sites of CTF18, RFC2, RFC5 and RFC4 (arginine fingers from adjacent subunits); 0.5 mM ATPγS, PCNA and DNA, 1 mM Mg acetate, pH 7.5, room temperature

**Q.** How did the cryo-EM structure turn out when `Nc1ncnc2c1ncn2[C@@H]1O[C@H](COP(=O)(O)OP(=O)(O)OP(O)(O)=S)[C@@H](O)[C@H]1O` [ATPγS] was run?
**A.** We identified four ATPγS molecules in the AAA+ nucleotide binding pockets of subunits CTF18/A, RFC2/B, RFC5/C
